Assay [1] addresses T1, human mAChR M1 (Homo sapiens, UniProt P11229).
T1 sequence (P11229 1-460): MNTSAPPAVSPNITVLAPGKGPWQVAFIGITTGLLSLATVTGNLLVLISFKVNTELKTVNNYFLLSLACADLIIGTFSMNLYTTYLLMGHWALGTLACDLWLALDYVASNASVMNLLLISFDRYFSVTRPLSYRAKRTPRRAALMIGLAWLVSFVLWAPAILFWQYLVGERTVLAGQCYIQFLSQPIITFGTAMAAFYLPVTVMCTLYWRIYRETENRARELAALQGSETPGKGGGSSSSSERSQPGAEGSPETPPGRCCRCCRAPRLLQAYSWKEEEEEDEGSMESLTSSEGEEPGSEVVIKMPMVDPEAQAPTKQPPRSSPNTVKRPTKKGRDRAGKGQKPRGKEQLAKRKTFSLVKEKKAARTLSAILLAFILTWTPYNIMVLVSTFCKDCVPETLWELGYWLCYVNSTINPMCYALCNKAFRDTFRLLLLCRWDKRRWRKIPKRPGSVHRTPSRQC
In words: mAChR M1 cell-based functional assay (calcium mobilization), PAM mode: increase in the EC20 acetylcholine response. A digest of the protocol: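 PAM readout is the concentration-dependent rise in the EC20 acetylcholine calcium signal, fitted to a four-parameter logistic (EC50, Emax). Compounds were preincubated from 4 s before ACh at 144 s (EC20) and 230 s (EC80). hM1-expressing CHO-K1 cells loaded with Fluo-4, FDSS ratio read.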

For assay [2], the target named is T1, human mAChR M1. In words: mAChR M1 cell-based functional assay (calcium mobilization), agonist mode: compound alone, Emax relative to acetylcholine maximum. The conditions noted are these: for EC50 / Agonist Activity Human M1 EC50: human mAChR M1; for Emax: relative to the maximum for acetylcholine. In outline:
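Agonist activity is the concentration-dependent rise in intracellular calcium (Fluo-4, 1 Hz read) after compound addition, measured before any acetylcholine was added, in stable hM1 CHO-K1 cells. Curves were 11-point, 1:3 dilutions fitted by four-parameter logistic. Emax is given as a fraction of maximal acetylcholine response.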
Background: Calcium flux is commonly read through the fluorescence of an indicator in the cells.

Consider 19 compounds from patent US20240228489A1, “POSITIVE ALLOSTERIC MODULATORS OF THE MUSCARINIC ACETYLCHOLINE RECEPTOR M1” (Vanderbilt University, priority 2021, published 2024).

As for `[2H]C1([2H])c2ncccc2C(=O)N1Cc1ccc(-c2ccc(OC(C)COC)c3nn(C)cc23)cc1F` (stereo not shown) [Compound 143, 6-(2-fluoro-4-(7-((1-methoxypropan-2-yl)oxy)-2-methyl-2H-indazol-4-yl)benzyl)-6,7-dihydro-5H-pyrrolo[3,4-b]pyridin-5-one-7,7-d2], at human mAChR M1 [1], the EC50 came to 1270 nM and the Emax stood at 74%. Moreover, on human mAChR M1 [2], the EC50 is ≥ 10000 nM and the Emax was found to be 15%.

`[2H]C([2H])([2H])Oc1cnc2c(c1)C(=O)N(Cc1c(F)cc(-c3cccc4nn(C)cc34)cc1F)C2([2H])[2H]` [Compound 63, 6-(2,6-Difluoro-4-(2-methyl-2H-indazol-4-yl)benzyl)-3-(methoxy-d3)-6,7-dihydro-5H-pyrrolo[3,4-b]pyridin-5-one-7,7-d2]: at human mAChR M1 [1], the EC50 came out at 125 nM and the Emax was determined as 89%. Moreover, at human mAChR M1 [2], the “Agonist Activity Human M1 EC50” value was “Inactive” and the Emax was 3%.

For `[2H]C1([2H])c2ncccc2C(=O)N1Cc1c(F)cc(-c2ccc(OC3COC3)c3nn(C)cc23)cc1F` [Compound 139, 6-(2,6-difluoro-4-(2-methyl-7-(oxetan-3-yloxy)-2H-indazol-4-yl)benzyl)-6,7-dihydro-5H-pyrrolo[3,4-b]pyridin-5-one-7,7-d2], at human mAChR M1 [1], the EC50 stood at 188 nM and the Emax worked out at 75%. Also, at human mAChR M1 [2], the EC50 amounted to 5040 nM and the Emax worked out at 36%.

For the compound `[2H]C1([2H])c2ncccc2C(=O)N1Cc1c(F)cc(-c2cc(Cl)c3nn(C)cc3c2)cc1F` [Compound 89, 6-(4-(7-chloro-2-methyl-2H-indazol-5-yl)-2,6-difluorobenzyl)-6,7-dihydro-5H-pyrrolo[3,4-b]pyridin-5-one-7,7-d2], on human mAChR M1 [1], the EC50 turned out to be 88 nM and the Emax came out at 46%. In addition, on human mAChR M1 [2], the “Agonist Activity Human M1 EC50” value is recorded as “Inactive” and the Emax was found to be 1%.

With `[2H]C1([2H])c2ncccc2C(=O)N1Cc1c(F)cc(-c2cc(F)c(Cl)c3nn(C([2H])([2H])[2H])cc23)cc1F` [Compound 248, 6-(4-(7-chloro-6-fluoro-2-(methyl-d3)-2H-indazol-4-yl)-2,6-difluorobenzyl)-6,7-dihydro-5H-pyrrolo[3,4-b]pyridin-5-one-7,7-d2], at human mAChR M1 [1], the EC50 is > 10000 nM and the Emax was 34%. In addition, on human mAChR M1 [2], the “Agonist Activity Human M1 EC50” value is “Inactive” and the Emax came out at 2%.

In the case of `[2H]C1([2H])c2ncccc2C(=O)N1Cc1c(F)cc(-c2ccc(OC)c3c2cnn3C([2H])([2H])[2H])cc1F` [Compound 69, 6-(2,6-difluoro-4-(7-methoxy-1-(methyl-d3)-1H-indazol-4-yl)benzyl)-6,7-dihydro-5H-pyrrolo[3,4-b]pyridin-5-one-7,7-d2], at human mAChR M1 [1], the EC50 stood at 2190 nM and the Emax was 68%. Also, on human mAChR M1 [2], the “Agonist Activity Human M1 EC50” value is “Inactive” and the maximal effect (Emax) stood at 2%.

On to `[2H]C1([2H])c2ncccc2C(=O)N1Cc1c(F)cc(-c2ccc(OCc3ccccc3)c3nn(C)cc23)cc1F` [Compound 129, 6-(4-(7-(benzyloxy)-2-methyl-2H-indazol-4-yl)-2,6-difluorobenzyl)-6,7-dihydro-5H-pyrrolo[3,4-b]pyridin-5-one-7,7-d2], for which, at human mAChR M1 [1], the EC50 stood at 1760 nM and the Emax came out at 65%. Further, at human mAChR M1 [2], the “Agonist Activity Human M1 EC50” value is “Inactive” and the Emax was determined as 1%.

For `[2H]C([2H])([2H])Oc1ccc(-c2cc(F)c(CN3C(=O)c4cccnc4C3([2H])[2H])c(F)c2)c2cn(C)nc12` [Compound 93, 6-(2,6-difluoro-4-(7-(methoxy-d3)-2-methyl-2H-indazol-4-yl)benzyl)-6,7-dihydro-5H-pyrrolo[3,4-b]pyridin-5-one-7,7-d2], on human mAChR M1 [1], the EC50 was found to be 131 nM and the Emax is 76%. On human mAChR M1 [2], the EC50 was found to be 3300 nM and the Emax turned out to be 21%.

Regarding `[2H]C1([2H])c2ncccc2C(=O)N1Cc1c(F)cc(-c2ccc(OCC)c3nn(C)cc23)cc1F` [Compound 96, 6-(4-(7-ethoxy-2-methyl-2H-indazol-4-yl)-2,6-difluorobenzyl)-6,7-dihydro-5H-pyrrolo[3,4-b]pyridin-5-one-7,7-d2], the EC50 on human mAChR M1 [1] was 211 nM; at human mAChR M1 [2], 7520 nM. Further, the Emax on human mAChR M1 [1] turned out to be 80%; on human mAChR M1 [2] it was 26%.

Regarding `[2H]C1([2H])c2ncccc2C(=O)N1Cc1c(F)cc(-c2cccc3nn(C)cc23)cc1C1CC1` [Compound 192, 6-(2-cyclopropyl-6-fluoro-4-(2-methyl-2H-indazol-4-yl)benzyl)-6,7-dihydro-5H-pyrrolo[3,4-b]pyridin-5-one-7,7-d2], at human mAChR M1 [1], the EC50 is 137 nM and the Emax turned out to be 84%. For the same compound, on human mAChR M1 [2], the EC50 came out at 5960 nM and the Emax is 44%.

For `[2H]C1([2H])c2ncccc2C(=O)N1Cc1ccc(-c2ccc3cncn3c2)cc1` [Compound 18, 6-(4-(imidazo[1,5-a]pyridin-6-yl)benzyl)-6,7-dihydro-5H-pyrrolo[3,4-b]pyridin-5-one-7,7-d2], on human mAChR M1 [1], the EC50 worked out at 4170 nM and the Emax is 65%. Further, on human mAChR M1 [2], the “Agonist Activity Human M1 EC50” value was “Inactive” and the Emax is 2%.

Consider `[2H]C1([2H])c2ncccc2C(=O)N1Cc1ccc(-c2cnc3nn(C)cc3c2)cc1F` [Compound 21, 6-(2-fluoro-4-(2-methyl-2H-pyrazolo[3,4-b]pyridin-5-yl)benzyl)-6,7-dihydro-5H-pyrrolo[3,4-b]pyridin-5-one-7,7-d2], for which, on human mAChR M1 [1], the EC50 was 2420 nM and the maximal effect (Emax) stood at 76%. At human mAChR M1 [2], the “Agonist Activity Human M1 EC50” value was “Inactive” and the Emax was 6%.

For the compound `[2H]C1([2H])c2ncccc2C(=O)N1Cc1c(Cl)cc(-c2cccc3nn(C([2H])([2H])[2H])cc23)cc1C1CC1` [Compound 220, 6-(2-chloro-6-cyclopropyl-4-(2-(methyl-d3)-2H-indazol-4-yl)benzyl)-6,7-dihydro-5H-pyrrolo[3,4-b]pyridin-5-one-7,7-d2], at human mAChR M1 [1], the EC50 stood at 472 nM and the Emax worked out at 86%. Also, on human mAChR M1 [2], the “Agonist Activity Human M1 EC50” value is listed as “Inactive” and the Emax came out at 8%.

Turning to `[2H]C1([2H])c2ncccc2C(=O)N1Cc1ccc(-c2ccc3cn(C)nc3c2)cc1` [Compound 14, 6-(4-(2-methyl-2H-indazol-6-yl)benzyl)-6,7-dihydro-5H-pyrrolo[3,4-b]pyridin-5-one-7,7-d2], at human mAChR M1 [1], the EC50 was determined as 6800 nM and the Emax was determined as 77%. For the same compound, at human mAChR M1 [2], the “Agonist Activity Human M1 EC50” value is “Inactive” and the Emax was determined as 2%.

In the case of `[2H]C1([2H])c2ncccc2C(=O)N1Cc1c(F)cc(-c2cccc3nn(C)cc23)cc1N(C)C` [Compound 229, 6-(2-(dimethylamino)-6-fluoro-4-(2-methyl-2H-indazol-4-yl)benzyl)-6,7-dihydro-5H-pyrrolo[3,4-b]pyridin-5-one-7,7-d2], on human mAChR M1 [1], the EC50 was ≥ 10000 nM and the Emax stood at 42%. On human mAChR M1 [2], the “Agonist Activity Human M1 EC50” value is “Inactive” and the Emax was 4%.

Turning to `[2H]C([2H])([2H])Oc1cnc2c(c1)C(=O)N(Cc1ccc(-c3ccc(OC)c4nn(C)cc34)cc1F)C2([2H])[2H]` [Compound 142, 6-(2-fluoro-4-(7-methoxy-2-methyl-2H-indazol-4-yl)benzyl)-3-(methoxy-d3)-6,7-dihydro-5H-pyrrolo[3,4-b]pyridin-5-one-7,7-d2], at human mAChR M1 [1], the EC50 worked out at 215 nM and the maximal effect (Emax) came to 81%. For the same compound, on human mAChR M1 [2], the EC50 turned out to be 6060 nM and the Emax is 13%.

With `[2H]C1([2H])c2ncccc2C(=O)N1Cc1ccc(-c2ccc(OCCOC)c3nn(C([2H])([2H])[2H])cc23)cc1F` [Compound 117, 6-(2-fluoro-4-(7-(2-methoxyethoxy)-2-(methyl-d3)-2H-indazol-4-yl)benzyl)-6,7-dihydro-5H-pyrrolo[3,4-b]pyridin-5-one-7,7-d2], on human mAChR M1 [1], the EC50 was found to be 317 nM and the Emax turned out to be 70%. In addition, at human mAChR M1 [2], the EC50 was ≥ 10000 nM and the Emax was 21%.

Consider `[2H]C1([2H])c2ncccc2C(=O)N1Cc1c(F)cc(-c2ccc(F)c3nn(C)cc23)cc1F` [Compound 36, 6-(2,6-difluoro-4-(7-fluoro-2-methyl-2H-indazol-4-yl)benzyl)-6,7-dihydro-5H-pyrrolo[3,4-b]pyridin-5-one-7,7-d2], for which, on human mAChR M1 [1], the EC50 amounted to 476 nM and the Emax was determined as 84%. Further, at human mAChR M1 [2], the “Agonist Activity Human M1 EC50” value was “Inactive” and the Emax was determined as 5%.

Turning to `[2H]C1([2H])c2ncccc2C(=O)N1Cc1c(F)cc(-c2ccc(OC3CC3)c3nn(C([2H])([2H])[2H])cc23)cc1F` [Compound 183, 6-(4-(7-cyclopropoxy-2-(methyl-d3)-2H-indazol-4-yl)-2,6-difluorobenzyl)-6,7-dihydro-5H-pyrrolo[3,4-b]pyridin-5-one-7,7-d2], on human mAChR M1 [1], the EC50 is 535 nM and the maximal effect (Emax) came out at 86%. Moreover, on human mAChR M1 [2], the EC50 was ≥ 10000 nM and the Emax is 13%.

The EC50 is the midpoint of the concentration-response curve. The Emax is the maximal effect, on the per cent scale that the assay sets.
